Results as given in patent publication US20040203128A1, “Use of PP2A phosphatase modulators in the treatment of mental disorders” (priority 2002, published 2004).

What was measured:
[1] = test system: GSK-3β; assay: In vitro phosphorylation assay of GST-2E11 with recombinant GSK-3β kinase and PKA; assay type: biochemical; settings: LiCl at final concentration 0, 8.3, 25, 75 and 225 mM; signal negatively correlated with concentration
Protocol: Expression and purification of the GST-2E11 fusion protein were performed as described above. Beads with bound fusion protein corresponding to 1 ml of bacterial clear lysate were washed three times in NETN and one time with HMK buffer without DTT (20 mM Tris-HCl [pH 7.5], 120 mM NaCl, 12 mM MgCl2). Beads were resuspended in 240 μl of reaction mix (24 μl of 10×HMK Buffer with 20 mM DTT, 40 units of Protein Kinase A Catalytic Subunit [PKA from bovine heart, 250 units/vial, Sigma] in 40 mM DTT, 5 μl of 24 mM ATP and 207 μl of distilled water) and incubated for 30 min at room temperature. Beads were then washed three times in NETN buffer and one time in GSK-3β reaction buffer (20 mM Tris-HCl [pH 7.5], 10 mM MgCl2, 5 mM DTT) (New England Biolabs). Beads were then resuspended in 50 μl of reaction mix (5 μl of 10×GSK-3β reaction buffer, 1 μl of [^32P]γATP 10mCi/ml, 50 U of recombinant GSK-3β[New England Biolabs], and distilled water for a final volume of 50 μl) and incubated at room temperature for 30 min. After three washes in NETN buffer, phosphorylated proteins were boiled in 2× Sample Buffer (125 mM Tris-HCl [pH 6.8], 4% SDS, 20% glycerol, 1.4 M β-Mercapto ethanol), resolved by 10% SDS-PAGE, and visualized by autoradiography.
In this phosphorylation assay, non-radiolabeled polypeptides to be tested are incubated in the presence of GSK-3β, PKA and radioactive ATP. […]

[2] = test system: PP2A phosphatase; assay: In vitro dephosphorylation of phosphorylated GST-2E11 with HTB-14 whole cell extracts; assay type: biochemical, Human; settings: HTB-14 cell extracts plus 400 μM okadaic acid, 30 min, room temperature
Protocol: In vitro phosphorylated GST-2E11 fusion protein was incubated at room temperature for 30 min with 500 μg of whole cell extracts of Human glioblastoma, astrocytoma cell line (ATCC number: HTB-14) with or without 400 μM of the PP2A phosphatase inhibitor okadaic acid (Sigma). HTB-14 whole cell extracts were prepared as follow: cells were washed three times with ice-cold TBS buffer (10 mM Tris-HCl [pH 8.0], 120 mM NaCl) and lysed at 4° C. for 30 min in EBC buffer (50 mM Tris-HCl [pH 8.0], 120 mM NaCl, 0.5% Nonidet P-40). Then the lysate was centrifugated for 10 min at 13.000×g at 4° C. to pellet cell debris. Proteins present in the supernatant were quantified by the standard Bradford's method (Bio-Rad Protein Assay). The proteins were then resolved by 10% SDS-PAGE, and visualized by autoradiography.
The phosphorylated radiolabeled GST-2E11 proteins obtained from the previous assay were incubated in the presence of HTB-14 cell extracts containing the PP2A phosphatase to determine whether PP2A is capable of dephosphorylating GST-2E11 proteins. In this experiment, a protein that is dephosphorylated by PP2A is not radioactive after incubation in the presence of HTB-14 cell extracts any more. Thus dephosphorylation of the GST-2E11 protein is monitored by disappearance of the signal visualized by autoradiography. […]

| SMILES | intensity of the GST-2E11 band (phosphorylation) in the presence of LiCl [1] | intensity of the GST-2E11 band versus phosphorylated GST-2E11 reference (inhibition of dephosphorylation) [2] |
| --- | --- | --- |
| [Cl-].[Li+] [LiCl] | decreased |  |
| C=C1[C@@H](O)[C@@H]2O[C@]3(CC[C@H](/C=C/[C@@H](C)[C@@H]4CC(C)=C[C@@]5(O[C@H](C[C@@](C)(O)C(=O)O)CC[C@H]5O)O4)O3)CC[C@H]2O[C@@H]1[C@@H](O)C[C@H](C)[C@H]1O[C@@]2(CCCCO2)CC[C@H]1C [okadaic acid] |  | only slightly weaker |
